Laboratory results published in PMC9890698 (BMC Biology, 2023).
Several values for one entry are separate records, joined by “and”; a condition that tells them apart may be missing. Equal entries are not always repeated.

Columns and labels:
Human P2Y1-R [1] = target: T1, Human P2Y1-R (Homo sapiens, UniProt P47900); assay: β-arrestin 2 recruitment BRET1 assay (β-arrestin 2-RLuc / P2Y1-R-Venus) in HEK293T cells; format: cell-based; settings: for MRS2179-modulated BRET: Figure 3g; for MRS2179-modulated BRET / b-arrestin 2 signaling, Ligand-modulated BRET (% of maximum MRS2179 mean value) / Ligand-modulated BRET: individual replicates; for b-arrestin 2 signaling, Ligand-modulated BRET (% of maximum MRS2179 mean value): Figure 4b; for Ligand-modulated BRET: Figure 3h, ligand 10 µM
T1 construct: expressed in transfected cells; host or cells: HEK293T/17
Description: We assessed β-arrestin 2 recruitment to the receptor using BRET^1 assay. The assay measures the interaction between β-arrestin 2 fused to the Renilla reniformis luciferase (RLuc) energy donor and the receptor fused to fluorescent Venus energy acceptor (Fig. 3a). The recruitment of cytosolic β-arrestin 2 to the receptor at the plasma membrane in the presence of an agonist will promote a significant increase of the BRET signal compared to the basal state, reflecting the close proximity between the β-arrestin 2 energy donor and the receptor energy acceptor [22].
Human P2Y1-R (NCBI Reference Sequence: NM_002563.2) and P2Y12-R (NCBI Reference Sequence: NM_022788.3) were fused to double Myc epitope and rat AT1-R (NCBI Reference Sequence: NM_030985.4) to HA tag in N-terminus extracellular region. Alternatively, receptors were also fused to Venus tag in C-terminus intracellular region. Plasmids encoding Gαq-RLuc8, GFP2-Gγ2 and untagged Gβ1 were previously described. ADP was purchased from Sigma-Aldrich/Merck (Darmstadt, Germany). […] The Gq inhibitor (FR900359) was kindly supplied by Evi Kostenis (University of Bonn. Germany).
G protein activation and β-arrestin 2 recruitment were performed as previously described. Briefly, vectors encoding receptors, Gαq-RLuc8, GFP2-Gγ2, Gβ1, or β-arrestin 2 were transiently cotransfected into HEK293T/17 cells as indicated in the figure legends. Forty-eight hours after transfection, cells were washed and resuspended in PBS containing 0.1% (w/v) glucose at room temperature and then distributed (80 μg proteins/well) in a 96-well microplate (PerkinElmer). For G protein activation experiments (BRET^2), cells were incubated in the absence (basal BRET signal) or in the presence of ligand for 1 minute. BRET signal between RLuc8 and GFP2 was measured after addition of the luciferase substrate coelenterazine 400a (5 μM). For β-arrestin 2 recruitment (BRET^1), cells were stimulated with ligands for 5 or 15 min. BRET signal was recorded after incubation with coelenterazine h (5 μM) for 8 min. For kinetics studies, BRET signal between RLuc and Venus was recorded at 20-s intervals at basal state for the 2 first minutes and then for 5 min after ligand injection. For saturation curves (BRET^1), the expression level of Venus- or RLuc-tagged protein was determined by direct measurement of total fluorescence and luminescence respectively. Total fluorescence was first measured with an excitation filter at 485 nm and an emission filter at 520 nm. Then, the same sample was incubated for 8 minutes with 5 μM coelenterazine h and the total luminescence was measured. BRET^2 and BRET^1 readings were collected using a modified Infinite F500 (Tecan Group Ltd). The BRET^2 signal was calculated by the ratio of emission of GFP2 (510–540 nm) to RLuc8 (370–450 nm) and the BRET^1 signal by the ratio of emission of Venus (520–570 nm) to RLuc (370–480 nm). Sometimes, results are expressed as the Net BRET computed by deducting the BRET background signal (obtained in the presence of the energy donor alone) from the BRET signal (acquired from cells expressing both the energy donor and acceptor).

Human P2Y12-R = target: T2, Human P2Y12-R (Homo sapiens, UniProt Q9H244); assay: IP1 accumulation assay (HTRF) in HEK293T cells expressing P2Y12-R; format: cell-based; settings: MRS2179 10 μM, 2 h
T2 construct: expressed in transfected cells; host or cells: HEK293T/17

Human P2Y1-R [2] = target: T1, Human P2Y1-R; assay: IP1 accumulation assay (HTRF) in HEK293T cells expressing P2Y1-R; format: cell-based; settings: MRS2179 10 μM, 2 h
Description: Since Gαq protein activation is known to induce PLC activation leading to IP3 and subsequent cytosolic calcium release, we analyzed the constitutive Gαq-dependent P2Y1-R signaling by quantifying intracellular inositol monophosphate (IP1) using a monoclonal antibody-based competitive ELISA. IP1 is a downstream metabolite of IP3 that accumulates in cells following Gαq protein-coupled receptor activation, making it an ideal readout for Gαq protein-dependent signaling pathways.

[3] = system: washed murine platelets (P2Y1-R/Gαq signaling); assay: IP1 accumulation assay (HTRF) in washed murine platelets; format: cell-based, mouse; settings: MRS2179 10 μM, 2 h
Protocol: As performed in HEK293T cells, we thus quantified intracellular IP1 levels to monitor Gαq protein-dependent signaling pathways.
Platelet-rich plasma (PRP) was obtained by mixing blood with 1 volume of modified Hepes Tyrode’s buffer (137 mM NaCl, 2 mM KCl, 12 mM NaHCO3, 0.3 mM NaH2PO4, 1 mM MgCl2, 2 mM CaCl2, 5.5 mM glucose, 5 mM HEPES, and 0.35% (w/v) BSA, pH 6.7) followed by a centrifugation at 150 g for 2 min at 37 °C. Then, platelets were pelleted by centrifugation at 1000 g for 4 min, resuspended in modified Hepes Tyrode’s buffer (pH 7.4), adjusted to 3.10^8 platelets/mL in the presence of 0.02 U/mL of apyrase and 10 μM indomethacin and rested for 45 minutes at 37°C before platelet stimulation. PGI2 (0.5 μM) was added before centrifugation steps to avoid platelet activation.
Quantification of intracellular IP1 was performed using the HTRF (Homogeneous Time Resolved Fluorescence) IP1 competitive immunoassay (IP-One Tb kit. Cisbio. France) according to the manufacturer’s instructions. Briefly, 20,000 HEK293T/17 cells or 3.10^6 platelets were distributed in a 384-well white microplate (Greiner) and incubated with the indicated molecules for 30 min or 2 h at 37 °C in the presence of 50 mM of LiCl to prevent IP1 degradation. After addition of d2-labeled IP1 (acceptor) and anti-IP1-Cryptate (donor) for 1 h, the specific FRET signals were calculated by the fluorescence ratio of the acceptor and donor emission signal (665/620 nm) collected using a modified Infinite F500 (Tecan Group Ltd). Conversion of the HTRF ratio of each sample into IP1 concentrations was performed on the basis of a standard curve to determine the linear dynamic range of the assay.

[4] = Fig. 3g, inverse agonism on β-arrestin 2 recruitment, 15 min
[5] = β-Arrestin 2 signaling, Fig. 4b, 15 min

T2 sequence (Q9H244 whole entry): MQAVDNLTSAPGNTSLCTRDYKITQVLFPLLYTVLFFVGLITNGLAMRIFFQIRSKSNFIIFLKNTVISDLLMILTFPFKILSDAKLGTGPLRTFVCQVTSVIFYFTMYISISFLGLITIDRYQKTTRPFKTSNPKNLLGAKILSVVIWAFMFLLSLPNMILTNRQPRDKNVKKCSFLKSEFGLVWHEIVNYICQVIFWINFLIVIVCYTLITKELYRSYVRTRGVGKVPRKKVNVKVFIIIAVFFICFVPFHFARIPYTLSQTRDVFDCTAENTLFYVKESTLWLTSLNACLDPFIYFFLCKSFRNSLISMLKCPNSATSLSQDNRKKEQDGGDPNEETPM
T1 sequence (P47900 whole entry): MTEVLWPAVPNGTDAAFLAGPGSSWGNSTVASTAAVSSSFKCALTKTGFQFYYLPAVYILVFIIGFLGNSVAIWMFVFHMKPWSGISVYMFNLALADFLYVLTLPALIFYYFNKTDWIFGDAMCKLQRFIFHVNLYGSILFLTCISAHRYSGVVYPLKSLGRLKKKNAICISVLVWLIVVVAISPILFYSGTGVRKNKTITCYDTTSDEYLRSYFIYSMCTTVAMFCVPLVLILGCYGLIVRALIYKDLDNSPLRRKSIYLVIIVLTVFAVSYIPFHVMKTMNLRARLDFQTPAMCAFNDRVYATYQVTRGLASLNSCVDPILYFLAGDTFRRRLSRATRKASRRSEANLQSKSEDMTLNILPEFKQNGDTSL

For `CNc1ncnc2c1ncn2[C@H]1C[C@H](OP(=O)(O)O)[C@@H](COP(=O)(O)O)O1` [MRS2179], which “Effect on β-arrestin 2 recruitment at decreased (low) P2Y1-R expression” value (Human P2Y1-R [1]; 10 μM, 15 min, decreasing amounts of P2Y1-R-Venus vector, result in words) is on record?
The value was “loss of the inverse agonist efficacy”.

And the “Maximal efficacy (Emax), MRS2179-modulated BRET” value (Human P2Y1-R [1]; Fig. 3g, 15 min stimulation, difference in BRET signal with and without ligand)?
The value was -0.1192 ± 0.007029.

What about the EC50 (Human P2Y1-R [1]; [4]) of the same molecule?
The EC50 was 4.56 µM.

What about the “pEC50 ± s.e.m.” value (Human P2Y1-R [1]; [4]) of the same molecule?
The value was 5.341 ± 0.1565.

What about the “MRS2179-modulated BRET” value (Human P2Y1-R [1]; [MRS2179] 1.00E-04 M) of the same molecule?
The value was -0.1343 and -0.1251 and -0.1075 and -0.1104 and -0.1004 and -0.1271.

And the “MRS2179-modulated BRET” value (Human P2Y1-R [1]; [MRS2179] 1.00E-05 M)?
The value was -0.08399 and -0.08788 and -0.08039 and -0.09033 and -0.07645 and -0.09139.

And the “MRS2179-modulated BRET” value (Human P2Y1-R [1]; [MRS2179] 1.00E-06 M)?
Its value is -0.02625 and -0.04054 and -0.04836 and -0.05476 and -0.05132 and -0.07031.

What about the “MRS2179-modulated BRET” value (Human P2Y1-R [1]; [MRS2179] 1.00E-07 M) of the same molecule?
Its value is -0.0171 and -0.02456 and -0.02615 and -0.04428 and -0.0209 and -0.07223.

And the “MRS2179-modulated BRET” value (Human P2Y1-R [1]; [MRS2179] 1.00E-08 M)?
Its value is -0.003323 and -0.0198 and -0.01307 and -0.01788 and -0.04276 and -0.0269.

And the “MRS2179-modulated BRET” value (Human P2Y1-R [1]; [MRS2179] 1.00E-09 M)?
Its value is -0.00593 and -0.03381 and -0.01728 and -0.01928 and -0.03943 and -0.05623.

And the “MRS2179-modulated BRET” value (Human P2Y1-R [1]; [MRS2179] 1.00E-10 M)?
The value was -0.003915 and -0.01627 and -0.01217 and -0.01765 and -0.03594 and -0.03393.

What about the “b-arrestin 2 signaling, Ligand-modulated BRET (% of maximum MRS2179 mean value)” value (Human P2Y1-R [1]; [Ligand] 1.00E-04 M) of the same molecule?
The value was -103.593 % of maximum MRS2179 mean value and -98.5011 % of maximum MRS2179 mean value and -96.2574 % of maximum MRS2179 mean value and -88.0215 % of maximum MRS2179 mean value and -113.627 % of maximum MRS2179 mean value.

And the “b-arrestin 2 signaling, Ligand-modulated BRET (% of maximum MRS2179 mean value)” value (Human P2Y1-R [1]; [Ligand] 1.00E-05 M)?
The value was -60.9526 % of maximum MRS2179 mean value and -65.9951 % of maximum MRS2179 mean value and -71.6134 % of maximum MRS2179 mean value and -73.8216 % of maximum MRS2179 mean value and -88.9449 % of maximum MRS2179 mean value.

What about the “b-arrestin 2 signaling, Ligand-modulated BRET (% of maximum MRS2179 mean value)” value (Human P2Y1-R [1]; [Ligand] 1.00E-06 M) of the same molecule?
The value was -20.802 % of maximum MRS2179 mean value and -20.2455 % of maximum MRS2179 mean value and -36.1127 % of maximum MRS2179 mean value and -36.3804 % of maximum MRS2179 mean value and -49.6506 % of maximum MRS2179 mean value.

What about the “b-arrestin 2 signaling, Ligand-modulated BRET (% of maximum MRS2179 mean value)” value (Human P2Y1-R [1]; [Ligand] 1.00E-07 M) of the same molecule?
Its value is -19.7613 % of maximum MRS2179 mean value and -27.0869 % of maximum MRS2179 mean value and -32.4514 % of maximum MRS2179 mean value and -43.962 % of maximum MRS2179 mean value and -16.0925 % of maximum MRS2179 mean value.

And the “b-arrestin 2 signaling, Ligand-modulated BRET (% of maximum MRS2179 mean value)” value (Human P2Y1-R [1]; [Ligand] 1.00E-08 M)?
The value was -3.302 % of maximum MRS2179 mean value and 12.7459 % of maximum MRS2179 mean value and -20.5003 % of maximum MRS2179 mean value and -35.6867 % of maximum MRS2179 mean value and -12.0698 % of maximum MRS2179 mean value.

What about the “b-arrestin 2 signaling, Ligand-modulated BRET (% of maximum MRS2179 mean value)” value (Human P2Y1-R [1]; [Ligand] 1.00E-09 M) of the same molecule?
The value was -20.2543 % of maximum MRS2179 mean value and -2.0253 % of maximum MRS2179 mean value and -34.1131 % of maximum MRS2179 mean value and -19.5954 % of maximum MRS2179 mean value and -10.4994 % of maximum MRS2179 mean value.

And the “b-arrestin 2 signaling, Ligand-modulated BRET (% of maximum MRS2179 mean value)” value (Human P2Y1-R [1]; [Ligand] 1.00E-10 M)?
The value was -0.05365 % of maximum MRS2179 mean value and -19.3587 % of maximum MRS2179 mean value and -11.2009 % of maximum MRS2179 mean value and -4.28 % of maximum MRS2179 mean value and -21.5173 % of maximum MRS2179 mean value.

What about the “Ligand-modulated BRET” value (Human P2Y1-R [1]; 0.1µg P2Y1-R plasmid) of the same molecule?
The value was -0.007776 and -0.009026 and 0.006633 and -0.01036 and -0.001083.

And the “Ligand-modulated BRET” value (Human P2Y1-R [1]; 1µg P2Y1-R plasmid)?
The value was -0.04239 and -0.06101 and -0.06001 and -0.03815 and -0.06277.

What about the “Ligand-modulated BRET” value (Human P2Y1-R [1]; 4µg P2Y1-R plasmid) of the same molecule?
The value was -0.06559 and -0.09192 and -0.04789 and -0.08727 and -0.06156.

What about the “Effect on β-arrestin 2 recruitment / BRET signal between P2Y1-R-Venus and β-arrestin 2-RLuc” value (Human P2Y1-R [1]; HEK293T cells, high P2Y1-R expression, result in words) of the same molecule?
Its value is “significantly decreased the BRET signal”.

What about the EC50 (Human P2Y1-R [1]; [5]) of the same molecule?
Its EC50 is 5.05 µM.

And the “pEC50 ± s.e.m.” value (Human P2Y1-R [1]; [5])?
The value was 5.296 ± 0.153.

What about the “IP1 concentration” value (Human P2Y12-R) of the same molecule?
The value was 90.2229 nM and 91.7585 nM and 129.706 nM and 87.0301 nM and 114.326 nM.

What about the “Effect on IP1 production” value (Human P2Y1-R [2]; ADP 100 μM, Gq inhibitor 100 nM, result in words) of the same molecule?
Its value is “strongly inhibited”.

What about the “IP1 concentration” value (Human P2Y1-R [2]; P2Y1-R) of the same molecule?
The value was 323.411 nM and 417.936 nM and 377.702 nM and 245.513 nM and 385.824 nM.

And the “IP1 concentration (% matched basal values)” value ([3]; murine platelets, individual mice)?
Its value is 42.6495 % matched basal values and 45.455 % matched basal values and 38.903 % matched basal values and 51.5072 % matched basal values and 54.7749 % matched basal values and 40.3524 % matched basal values and 43.9466 % matched basal values and 64.234 % matched basal values and 61.4369 % matched basal values and 43.9485 % matched basal values and 57.6391 % matched basal values and 59.347 % matched basal values and 42.2435 % matched basal values.

And the “Effect on IP1 levels” value ([3]; washed murine platelets, ADP 100 μM, Gq inhibitor 100 nM, apyrase 0.02 U/mL, result in words)?
Its value is “decreased IP1 levels”.
